Experimental data reported in patent US20150141411A1, “SUBSTITUTED 3,4-DIHYDRO-2H-PYRIDO[1,2-A]PYRAZINE-1,6-DIONE DERIVATIVES USEFUL FOR THE TREATMENT OF (INTER ALIA) ALZHEIMER'S DISEASE” (Janssen Pharmaceuticals, Inc., priority 2012, published 2015).

What was measured:
[1] = test system: Aβ40; assay: In vivo efficacy: brain soluble Aβ40 in non-transgenic rodents (MSD electrochemiluminescence multiplex); parameters: species or system mouse; details: dose 30 mg/kg oral dosing, brain soluble fraction, animals sacrificed after 4 h; for response vs control in vivo at 30 mg/kg: Mus musculus, po, 4 h, untreated animals (Ctrl) set at 100, read-out: Aβ40 (% vs Ctrl)_Mean; for Aβ40 (% vs Ctrl)_Mean: untreated animals (Ctrl) set at 100, 30 mg/kg
Excerpt: To determine whether acute administration of an Aβ42 lowering agent would reduce Aβ42 levels in vivo, non-transgenic rodents, e.g. mice or rats were used. Animals treated with the Aβ42 lowering agent were examined and compared to those untreated or treated with vehicle and brain levels of soluble Aβ42, Aβ40, Aβ38, and Aβ37 were quantitated by Meso Scale Discovery's (MSD) electrochemiluminescence detection technology. Treatment periods varied from hours (h) to days and were adjusted based on the results of the Aβ42 lowering once a time course of onset of effect could be established.
A typical protocol for measuring Aβ42 lowering in vivo is shown but it is only one of many variations that could be used to optimize the levels of detectable Aβ. For example, Aβ42 lowering compounds were formulated in 20% of Captisol® (a sulfo-butyl ether of β-cyclodextrin) in water or 20% hydroxypropyl βcyclodextrin. The Aβ42 lowering agents were administered as a single oral dose or by any acceptable route of administration to overnight fasted animals. After 4 h, the animals were sacrificed and Aβ42 levels were analysed.
Blood was collected by decapitation and exsanguinations in EDTA-treated collection tubes. Blood was centrifuged at 1900 g for 10 minutes (min) at 4° C. and the plasma recovered and flash frozen for later analysis. The brain was removed from the cranium and hindbrain. The cerebellum was removed and the left and right hemisphere were separated. The left hemisphere was stored at −18° C. for quantitative analysis of test compound levels. The right hemisphere was rinsed with phosphate-buffered saline (PBS) buffer and immediately frozen on dry ice and stored at −80° C. until homogenization for biochemical assays.
Mouse brains from non-transgenic animals were resuspended in 8 volumes of 0.4% DEA (diethylamine)/50 mM NaCl containing protease inhibitors (Roche-11873580001 or 04693159001) per gram of tissue, e.g. for 0.158 g brain, add 1.264 ml of 0.4% DEA. All samples were homogenized in the FastPrep-24 system (MP Biomedicals) using lysing matrix D (MPBio #6913-100) at 6 m/s for 20 seconds. Homogenates were centrifuged at 20800×g for 5 min and supernatants collected. Supernatants were centrifuged at 221.300×g for 50 min. The resulting high speed supernatants were then transferred to fresh eppendorf tubes. Nine parts of supernatant were neutralized with 1 part 0.5 M Tris-HCl pH 6.8 and used to quantify Aβ.
To quantify the amount of Aβ42, Aβ40, Aβ38, and Aβ37 in the soluble fraction of the brain homogenates, simultaneous specific detection of Aβ42, Aβ40, Aβ38, and Aβ37 was performed using MSD's electro-chemiluminescence multiplex detection technology. In this assay purified monoclonal antibodies specific for Abeta37 (JRD/Aβ37/3), Abeta38 (J&JPRD/Aβ38/5), Abeta40 (JRF/cAβ40/28), and Abeta42 (JRF/cAβ42/26) were coated on MSD 4-plex plates. Briefly, the standards (a dilution of synthetic Aβ42, Aβ40, Aβ38, and Aβ37) were prepared in 1.5 ml Eppendorf tube in Ultraculture, with final concentrations ranging from 10000 to 0.3 pg/m. The samples and standards were co-incubated with Sulfo-tag labelled JRF/rAβ/2 antibody to the N-terminus of Aβ as detector antibody. 50 μl of conjugate/sample or conjugate/standards mixtures were then added to the antibody-coated plate. The plate was allowed to incubate overnight at 4° C. in order to allow formation of the antibody-amyloid complex. Following this incubation and subsequent wash steps the assay was finished by adding read buffer according to the manufacturer's instructions (Meso Scale Discovery, Gaitherburg, Md.).
The SULFO-TAG emits light upon electrochemical stimulation initiated at the electrode. MSD Sector instrument SI6000 was used for signal read-out.
The results are shown in Table 5 (dose 30 mg/kg oral dosing) (value for untreated animals as control (Ctrl) was set at 100): […]

[2] = molecular target: T1, γ-secretase (Homo sapiens, UniProt P49768); assay: Screening for γ-secretase-modulating activity: Aβtotal in supernatant of SKNBE2 cells carrying hAPP 695 wild type (Alphalisa); assay type: cell-based; details: SKNBE2 human neuroblastoma cells carrying hAPP 695 wild type, overnight incubation, Aβtotal in cell supernatant
T1 construct: endogenous in cells; host or cells: SKNBE2 human neuroblastoma cells (carrying hAPP 695 wild type as substrate)
Summary of the method: (§1)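 SKNBE2 neuroblastoma cells expressing wild-type hAPP 695 plated at 10^4 cells/well in Ultraculture with test compound, incubated overnight at 37° C. Aβ42 (C-terminal/N-terminal antibody pair) and Aβtotal (N-terminal/4G8 pair) in supernatant quantified by AlphaLISA. IC50 from 4-parameter fit of percent of compound-free control.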

[3] = molecular target: T1, γ-secretase; assay: Screening for γ-secretase-modulating activity: Aβ42 in supernatant of SKNBE2 cells carrying hAPP 695 wild type (Alphalisa); assay type: cell-based; details: SKNBE2 human neuroblastoma cells carrying hAPP 695 wild type, overnight incubation, Aβ42 in cell supernatant
Summary of the method: as §1

| IC50 [2] | IC50 [3] | Compound | response vs control in vivo at 30 mg/kg [1] | Aβ40 (% vs Ctrl)_Mean [1] |
| --- | --- | --- | --- | --- |
| > 10 µM | 0.06 µM | Cc1cn(-c2ccc3n(c2=O)C[C@@H](C)N(Cc2cc(N4CCOC(C(F)(F)F)C4)cc(C(F)(F)F)c2)C3=O)cn1 (mixture of isomers) [compound 153] | 128% | – |
| > 10 µM | 0.14 µM | Cc1cn(-c2ccc3n(c2=O)CCN(C(C)c2cccc(Cl)c2Cl)C3=O)cn1 (single isomer, unassigned) [10a] | – | – |
| > 10 µM | 0.07 µM | Cc1cn(-c2ccc3n(c2=O)CC(C)N(C(C)c2cc(C(F)(F)F)cc(C(F)(F)F)c2)C3=O)cn1.Cl (single isomer, unassigned) [compound 111] | – | 52 % vs Ctrl |
| > 10 µM | 0.07 µM | Cc1cn(-c2ccc3n(c2=O)CC(C)N(C(C)c2cc(C(F)(F)F)cc(C(F)(F)F)c2)C3=O)cn1.Cl (single isomer, unassigned) [compound 112] | – | 82 % vs Ctrl |
| > 10 µM | 0.11 µM | CCC(c1cc(OC)cc(C(F)(F)F)c1)N1C(=O)c2ccc(-n3cnc(C)c3)c(=O)n2C[C@H]1C (single isomer, unassigned) [compound 141] | 122% | – |
| > 10 µM | 0.06 µM | CCOc1cc(C(C)N2C(=O)c3ccc(-n4cnc(C)c4)c(=O)n3C[C@H]2C)cc(C(F)(F)F)c1 (single isomer, unassigned) [compound 143] | 129% | – |
| 6.76 µM | 0.03 µM | Cc1cn(-c2ccc3n(c2=O)CCN(C(C)c2c[nH]c4cc(F)c(Cl)cc24)C3=O)cn1 (single isomer, unassigned) [compound 183] | 133% | – |
| 5.89 µM | 0.02 µM | Cc1cn(-c2ccc3n(c2=O)CCN(C(C)c2cn(C)c4cc(F)c(Cl)cc24)C3=O)cn1 (single isomer, unassigned) [compound 185] | 89% | – |
| – | 0.22 µM | Cc1cn(-c2ccc3n(c2=O)CC(C)N(C(C)c2cn(C)c4cc(F)c(Cl)cc24)C3=O)cn1 (single isomer, unassigned) [compound 189] | 118% | – |
| 1.82 µM | 0.01 µM | CCn1cc(C(C)N2C(=O)c3ccc(-n4cnc(C)c4)c(=O)n3CC2C)c2cc(Cl)c(F)cc21 (single isomer, unassigned) [compound 192] | 44% | – |
| 1.55 µM | 0.01 µM | Cc1cn(-c2ccc3n(c2=O)CC(C)N(C(C)c2cn(C(C)C)c4cc(F)c(Cl)cc24)C3=O)cn1 (single isomer, unassigned) [compound 194] | 43% | – |
| 3.09 µM | 0.02 µM | Cc1cn(-c2ccc3n(c2=O)CC(C)N(C(C)c2c[nH]c4c(F)cc(Cl)cc24)C3=O)cn1 (single isomer, unassigned) [compound 219] | 95% | – |
| > 10 µM | 0.11 µM | CCC1Cn2c(ccc(-n3cnc(C)c3)c2=O)C(=O)N1Cc1cc(C(F)(F)F)cc(C(F)(F)F)c1.Cl (stereo not shown) [compound 1] | – | – |
| > 10 µM | 0.17 µM | Cc1cn(-c2ccc3n(c2=O)C[C@@H](C)N(Cc2ccc(Cl)c(Cl)c2)C3=O)cn1 [compound 2] | – | – |
| > 10 µM | 0.1 µM | Cc1cn(-c2ccc3n(c2=O)CC(C)N(Cc2cc(C(F)(F)F)cc(C(F)(F)F)c2)C3=O)cn1 (stereo not shown) [compound 3] | 85% | – |
| > 10 µM | 0.08 µM | Cc1cn(-c2ccc3n(c2=O)CCN(Cc2cccc(-c4ccccc4)c2)C3=O)cn1 [compound 5] | – | – |
| > 10 µM | 0.07 µM | Cc1cn(-c2ccc3n(c2=O)CC(C)N(Cc2cc(OCC4CC4)cc(C(F)(F)F)c2)C3=O)cn1.Cl (stereo not shown) [compound 6] | 108% | – |

| IC50 [2] | IC50 [3] | Compound | response vs control in vivo at 30 mg/kg [1] | Aβ40 (% vs Ctrl)_Mean [1] |
| --- | --- | --- | --- | --- |
| > 10 µM | 0.14 µM | CCc1cn(-c2ccc3n(c2=O)CC(C)N(Cc2cc(C(F)(F)F)cc(C(F)(F)F)c2)C3=O)cn1.Cl (stereo not shown) [compound 7] | – | – |
| > 10 µM | 2.57 µM | Cc1cn(-c2ccc3n(c2=O)CCN(Cc2ccccc2C)C3=O)cn1 [compound 22] | – | – |
| > 10 µM | 0.14 µM | Cc1cn(-c2ccc3n(c2=O)C[C@@H](C)N(Cc2cccc(C(C)(C)C)c2)C3=O)cn1 [compound 23] | – | – |
| > 10 µM | 0.14 µM | Cc1cn(-c2ccc3n(c2=O)C[C@@H](C)N(Cc2ccc(C(F)(F)F)c(C(F)(F)F)c2)C3=O)cn1 [compound 46] | – | – |
| > 10 µM | 0.04 µM | Cc1cn(-c2ccc3n(c2=O)C[C@@H](C)N(CCc2cc(C(F)(F)F)cc(C(F)(F)F)c2)C3=O)cn1 [compound 50] | 112% | – |
| > 10 µM | 0.18 µM | Cc1cc(CN2C(=O)c3ccc(-n4cnc(C)c4)c(=O)n3C[C@H]2C)cc(C(F)(F)F)c1 [compound 59] | – | – |
| > 10 µM | 0.13 µM | Cc1cn(-c2ccc3n(c2=O)C[C@@H](C)N(Cc2ccc(Cl)c(C(F)(F)F)c2)C3=O)cn1 [compound 62] | – | – |
| > 10 µM | 0.19 µM | Cc1cn(-c2ccc3n(c2=O)C[C@@H](C)N(Cc2cc(Cl)cc(C(F)(F)F)c2)C3=O)cn1 [compound 63] | – | – |
| > 10 µM | 0.37 µM | Cc1cn(-c2ccc3n(c2=O)CCN(Cc2ccc(Cl)c(C(F)(F)F)c2)C3=O)cn1 [compound 65] | – | – |
| > 10 µM | 0.1 µM | Cc1cn(-c2ccc3n(c2=O)C[C@@H](C)N(Cc2cc(N4CCC(C)CC4)ccc2Cl)C3=O)cn1 [compound 80] | 164% | – |
| > 10 µM | 0.11 µM | Cc1cn(-c2ccc3n(c2=O)C[C@@H](C)N(Cc2cc(N4CCCC4)ccc2Cl)C3=O)cn1 [compound 82] | 125% | – |
| > 10 µM | 0.17 µM | Cc1cn(-c2ccc3n(c2=O)CCN(Cc2ccc(C)c(N4CCCCC4)c2)C3=O)cn1 [compound 99] | – | – |
| > 10 µM | 0.04 µM | Cc1cn(-c2ccc3n(c2=O)C[C@@H](C)N(Cc2cc(CC4CC4)cc(C(F)(F)F)c2)C3=O)cn1 [compound 110] | 103% | – |
| > 10 µM | 0.08 µM | Cc1cn(-c2ccc3n(c2=O)C[C@@H](C)N(Cc2cc(C4CC4)cc(C(F)(F)F)c2)C3=O)cn1 [compound 116] | 105% | – |
| > 10 µM | 0.19 µM | C[C@@H]1Cn2c(ccc(-n3cnc(Cl)c3)c2=O)C(=O)N1Cc1cc(C(F)(F)F)cc(C(F)(F)F)c1 [compound 118] | 115% | – |
| > 10 µM | 0.09 µM | Cc1cn(-c2ccc3n(c2=O)C[C@@H](C)N(Cc2cc(OC(C)C)nc(C(F)(F)F)c2)C3=O)cn1 [compound 128] | 116% | – |
| > 10 µM | 2.14 µM | COc1cccc(CN2C(=O)c3ccc(-n4cnc(C)c4)c(=O)n3C[C@H]2C)c1 [compound 132] | 121% | – |
